The subject of one series is FIV UT-113. The series is described as follows: FIV infection of CrFK cells, FIV p24 ELISA. The class given is cell-based, Feline immunodeficiency virus (FIV). To be noted: 100 to 0.024 µM, p24 after 6 days. How it is done:
After 6 days of incubation FIV replication was measured by quantification of the p24 viral core antigen in the cell culture supernatant by an FIV p24 enzyme-linked immunoabsorbent assay as described previously ^19.
A general note: In an ELISA, binding on a coated surface is turned into a signal by an enzyme label.

The subject of another series is CrFK cells. Kind of series: Cellular viability assay (MTT) of CrFK cells. In kind it is cell-based, feline. To be noted: concentrations used in the FIV assay.
In another series the test system is MHV-A59. The series is described as follows: MHV infection of mouse L cells, CPE scoring. As to conditions: 24h, 143 to 0.009 µM. In kind it is cell-based, Mouse hepatitis virus (MHV). As to the method: (§1) After 24h, the cytopatic effect (CPE) of the virus and the cytotoxicity of the compounds were scored by microscopic observation.
In another series the test system is Mouse L cells. Kind of series: Cytotoxicity in mouse L cells by microscopic observation. To be noted: mouse L cells, all tested concentrations. How it is done: as §1
The test system of series [1] is HIV-1Ba-L. Kind of series: HIV-1 infection of PBMC, p24-core antigen ELISA. The class given is cell-based. To be noted: Human immunodeficiency virus 1, PBMC; read-out: IC50. As to the method:
To correct for the input virus, an extra control consisting of medium containing the same amount of input virus as added to the cells was included in the experiment. The amount of p24 in this control was subsequently subtracted from the p24 values of the samples in order to obtain the exact amount of p24 produced by the cells. p24-core antigen quantification by ELISA After 2 or 7 days incubation, samples of the supernatants were collected, inactivated by addition of Empigen (Calbiochem, La Jolla, CA, USA) and by heat inactivation at 56°C for 30 min. p24-core antigen concentration was determined by an enzyme linked immunoabsorbent assay (ELISA) (AMPAK™, DAKO, Cambridgeshire, UK) as described previously ^18,19. The optical density values were converted into p24 concentration (ng/ml) with the use of a calibration curve made by serial dilutions of recombinant p24 protein (NIBSC, UK) that was submitted to the same treatment as the samples.
(§2) To correct for the input virus, an extra control consisting of medium containing the same amount of input virus as added to the cells was included in the experiment. The amount of p24 in this control was subsequently subtracted from the p24 values of the samples in order to obtain the exact amount of p24 produced by the cells.
After 7 days incubation, samples of the supernatants were collected, inactivated by addition of Empigen (Calbiochem, La Jolla, CA, USA) and by heat inactivation at 56°C for 30 min. p24-core antigen concentration was determined by an ELISA (AMPAK™, DAKO, Cambridgeshire, UK) as described previously ^39,40. The optical density values were converted into p24 concentration (ng/ml) with the use of a calibration curve made by serial dilutions of recombinant p24 protein (NIBSC, UK) that was submitted to the same treatment as the samples.
as §2
After 7 days incubation, samples of the supernatants were collected, inactivated by addition of Empigen (Calbiochem, La Jolla, CA, USA) and by heat inactivation at 56°C for 30 min. p24-core antigen concentration was determined by an enzyme linked immunoabsorbent assay (ELISA) (AMPAK™, DAKO, Cambridgeshire, UK) as described previously 15,16. The optical density values were converted into p24 concentration (ng/ml) with the use of a calibration curve made by serial dilutions of recombinant p24 protein (NIBSC, UK) that was submitted to the same treatment as the samples.

The test system of the next series is HIV-1HXB2. The series is described as follows: Reverse transcription assay in PBMC: (-) strong stop and gag DNA by real-time Taqman PCR. The class given is cell-based. As to conditions: 10h after infection; for reduction in gag cDNA copies: PBMC. As to the method: PBMC infection with HIV-1Ba-L or HIV-1HXB2 for real-time Taqman PCR The ability of HIV-1Ba-L to enter the cells in the presence of APHS was tested using DS as positive control (entry assay). The amount of HIV-1HXB2 reverse transcription products in the presence of APHS was also tested, using AZT as positive control (reverse transcription assay). Before infection, PHA-stimulated PBMC from the PBMC batch were pre-incubated with different concentrations of APHS, DS or AZT for 24 h. Afterwards, cells were washed and 1 × 10^6 PBMC were incubated for 40 min with HIV-1Ba-L or HIV-1HXB2 at an M.O.I. of 0.0025 and with appropriate concentrations of APHS, AZT, DS or medium in the presence of 1/20 concentrated M buffer (Roche) and 4U/ml DNase (Roche) to digest possible contaminating viral DNA associated with the virions. Afterwards PBMC were washed and resuspended in medium with or without compounds. Cells were treated with 1 mg/ml Pronase (Roche) to remove virus particles bound to the cells. […] At different time points, 1.0 × 10^6 cells were added to 900 µl Nuclisens lysis buffer (Organon Teknika, Boxtel, The Netherlands) containing 40 µl silica to bind total nucleic acids (Nuclisens isolation kit). For the entry assay, samples were collected 2h after the start of the infection and for the reverse transcription assays samples were collected 2, 7 and 10h after the start of the infection.
HIV RNA and DNA were extracted from samples of infected cells according to a method described before ^23. Briefly, after 10 min of mixing the silica and lysis buffer, tubes were shortly centrifuged at 13,000 rpm and supernatant was discarded. Free non-nucleic acid components were removed by washing the silica particles twice with Nuclisens washing buffer, twice with 70 % ethanol and once with acetone. The silica pellet was dried for 10 min at 56 °C. Total nucleic acids were eluted by resuspending the pellet in 100 µl nuclease-free water. After mixing the tubes for 10 min at 56 °C, tubes were shortly centrifuged and the supernatant was transferred to a new tube and stored at -20 °C.
Real-time Taqman PCR is based on cleavage of a probe, hybridized to the target sequence by 5'-3' nuclease activity of Taq DNA polymerase during amplification, as described previously ^24. Briefly, target sequence-specific forward and reverse primers prime the amplification reaction. The probe contains a reporter dye at the 5' end and a quencher dye at the 3' end. When both dyes are attached to the probe, reporter dye emission is quenched. The probe is displaced from the target during each polymeration cycle. Once separated from the quencher, the reporter dye emits its characteristic fluorescence, which can then be measured. The amount of fluorescence measured is proportional to the amount of PCR product.
HIV-1 gag cDNA and HIV-1 (-) strong stop and gag DNA were amplified and quantified by real-time Taqman PCR as described elsewhere ^25. Sets of primers/probes were designed according to a previous study by Zack and colleagues ^26. To quantify the amount of gag RNA in the samples, a cDNA standard curve was prepared from five-fold dilutions of extracted RNA from an HXB2 viral batch, of which the RNA amount was previously determined. To quantify (-) strong stop and gag DNA in the samples, a DNA standard curve was prepared from five-fold dilutions of DNA extracted from U1 cells, which contain two copies of the HIV-1HXB2 genome per cell. Albumin was also quantified and used for normalization of all samples.
For orientation: In qPCR the cycle at which signal appears reflects the starting amount.

A further series is described as follows: in vitro. As to conditions: human.
The test system of series [2] is HIV-1Ba-L. The series is described as follows: Combination of HIV-1 inhibitors in HIV-1Ba-L infected PBMC (checker board, CalcuSyn).
Experimental: After 7 days of incubation, p24 antigen in culture supernatant was quantified by ELISA and cellular viability was assessed by a cytotoxicity assay. fa was calculated for each drug combination after p24 quantification. Using the CalcuSyn program, dose-effect curves were plotted for each drug combination, i.e., each dose was plotted against the corresponding fa value. […] CI values were calculated using the mutually nonexclusive assumption.

pIC50: −log10 of the molar value. Where “and” joins values, the source holds several entries; their conditions need not be identical. Equal values may be shown once. Bounds are passed on as bounds.

Broadly, the pIC50 is the IC50 on a negative log10 scale, so that one unit is a factor of ten.

For `CCCCCSc1ccccc1O` [APHS-d, phenol, 2-(pentylthio)], the “effect on FIV replication” value in the series with FIV UT-113 is reported as “did not show any effect”. The “cytotoxicity for CrFK cells” value in the series with CrFK cells was “not cytotoxic”. In addition, the “effect on MHV replication (CPE)” value in the series on MHV-A59 is recorded as “no effect”. Besides, in the series on Mouse L cells, the “cytotoxicity by microscopic observation” value is “not cytotoxic”.

On to `Cc1cn([C@H]2C[C@H](N=[N+]=[N-])[C@@H](CO)O2)c(=O)[nH]c1=O` [AZT, zidovudine], for which the negative logarithm of the IC50 (pIC50) with HIV-1Ba-L [1] was 8.52; with HIV-1Ba-L [2] (Human immunodeficiency virus 1, PBMC, 168 h, read-out: IC50 Drug, drug alone, head over this column prints Combination), 8.52; in the series with HIV-1Ba-L [2] (read-out: IC50 Combination Drug, drug in combination with APHS at the equipotent ratio (1 : 1)), 8.70. In addition, the “reduction in gag cDNA copies” value in the series with HIV-1HXB2 (5 nM AZT) was 35% and 40%; with HIV-1HXB2 (1000 nM AZT), 90%. The “(-) strong stop DNA copy numbers versus untreated PBMC” value in the series on HIV-1HXB2 (10 or 30 µM APHS, 5 or 1000 nM AZT) is recorded as “did not show a significant decrease”. For the same compound, the CC50 at 7 days in the series “in vitro” was greater than 80000 nM.

Source of the values: EP1452605A1, “Method for determining antiviral activity” (Universiteit Utrecht Holding B.V., priority 2003, dated 2004).
